In one assay the target is T1, IKZF4 Eos (Homo sapiens, UniProt Q96SW2+Q9H2S9).
T1 construct: Human CD4+ T cells were isolated from fresh healthy leukopaks; endogenous in cells; host or cells: FACS-sorted primary human regulatory T cells from healthy leukopaks
Put plainly: Human Regulatory T Cell Reprogramming Assay (Eos). Format: cell-based. The protocol: Human CD4+ T cells were isolated from fresh healthy leukopaks (Stemcell Technologies) using the RosetteSep Human CD4+ T cell enrichment cocktail (Stemcell Technologies) and Ficoll density gradient centrifugation. Leukopaks were diluted with an equal volume of phosphate-buffered saline (PBS [Gibco]) supplemented with 2% fetal bovine serum (FBS, VWR Lifescience) and incubated with RosetteSep Human CD4^+ T cell enrichment cocktail for 20 minutes before layering on Ficoll-Paque Plus solution (GE Health Care). The cell-rich interface layer was harvested and washed twice with PBS supplemented with 2% FBS. Regulatory T cells were then isolated manually using the EasySep Human CD4^+CD1271WCD25^+ Regulatory T cell isolation kit (Stemcell Technologies) according to the manufacturer's instructions. Cells were rested overnight in Roswell Park Memorial Institute (RPMI) 1640 media (Gibco) supplemented with 10% FBS, Pen/Strep (Gibco), MEM-NEAA (Gibco), and sodium pyruvate (Gibco) in a humidified incubator (37° C., 5% CO2). Cells were then stained for CD4 (clone: RPA-T4, Biolegend), CD25 (clone: 2A3, BD Biosciences), and CD127 (clone: hIL-7R-M21, BD Biosciences). CD4+CD12710WCD25+ cells were sorted on a BD FACS Aria Fusion sorter to a purity of 95% or greater. Sorted cells were immediately used or cryopreserved for downstream assays.
Fresh or cryopreserved FACS-sorted CD4+CD127^lowCD25^+ Treg cells were cultured at 25,000-50,000 cells/well of 96-well round bottom plates in RPMI 1640 media (Gibco) supplemented with 10% FBS, Pen/Strep (Gibco), MEM-NEAA (Gibco), and sodium pyruvate (Gibco). Cells were stimulated with Treg Xpander beads (Thermo Fisher) at cells-to-beads ratio of 1:4 in the presence of 500 U/mL recombinant human IL-2 (Proleukin). Compounds were added at titrated doses and cells were incubated at 37° C., 5% CO2 for 12-13 days. Recombinant human IL-2 and compound were replenished every 2-3 days during the entire culture duration. On day 12 or 13, cells were restimulated with phorbol 12-myristate 13-acetate (PMA) and ionomycin in the presence of the protein transport inhibitors brefeldin A and monensin (eBioscience Cell Stimulation Cocktail plus protein transport inhibitors, 500×, Catalog number 00-4975-93) before proceeding with flow cytometry staining and analysis.
For flow cytometry staining, cells were washed twice with flow cytometry staining buffer (Thermo Fisher) and incubated in Human Tru-stain Fc block (Biolegend) for 10 minutes before adding eFluor780 viability dye (Thermo Fisher) and surface marker antibody cocktail for 30 minutes at 4° C. […] Data were analyzed using FlowJo version 10 and GraphPad Prism Software.
Table C-1 lists the maximum observed degradation of the IKZF2 protein and IKZF4 protein as measured in the Human Regulatory T Cell Reprogramming assay. […]

The target in another assay is IKZF1 Ikaros (Homo sapiens, UniProt Q13422+Q96SW2). Put plainly: Human CD8+ T Cell Reprogramming (Degradation) Assay (Ikaros). Format: cell-based. Details: Cryopreserved healthy donor human peripheral blood mononuclear cells (PBMC); endogenous in cells; host or cells: CD8+ T cells within healthy donor human PBMC. The conditions noted are these: CD8+ T cells, human PBMC, 24 h. The protocol:
Cryopreserved healthy donor human peripheral blood mononuclear cells (PBMC) from healthy donors were thawed and seeded at 500,000 cells/well of 96-well round bottom plates in RPMI 1640 media (Gibco) supplemented with 10% FBS, Pen/Strep (Gibco), MEM-NEAA (Gibco), and sodium pyruvate (Gibco). Cells were treated with titrated doses of compound for 24 hours at 37° C., 5% CO2 before analyzing by flow cytometry.
For flow cytometry staining, cells were washed twice with flow cytometry staining buffer (Thermo Fisher) and incubated in Human Tru-stain Fc block (Biolegend) for 10 minutes before adding eFluor780 viability dye (Thermo Fisher) and surface marker antibody cocktail containing LD-eFluor780, CD3-BUV-395, CD4-BUV805, CD8-FITC, and CD25-BV605 for 30 minutes at 4° C. Cells were then fixed and permeabilized by incubation with permeabilization buffer (eBioscience FoxP3 buffer set 00-5523-00) for 30 minutes at 4° C. as per the kit manufacturer's instructions. Cells were washed twice with the Perm/Wash buffer supplied in the kit as per the manufacturer's instructions and incubated overnight at 4° C. with an intracellular antibody cocktail comprised of antibodies specific for the transcription factors (i.e., Foxp3-BV421, HELIOS-PE-Cy7, EOS-PE, IKAROS-PECF594, AIOLOS-AF647). Cells were washed twice with Perm/Wash buffer and resuspended in flow cytometry staining buffer (Thermo Fisher) prior to acquisition. Sample acquisition and analysis was performed using a BD LSRFortessa (BD Biosciences) flow cytometer. Single-stain controls for each fluorochrome were prepared using UltraComp eBead Compensation Beads (Thermo Fisher). Data were analyzed using FlowJo version 10 and GraphPad Prism Software.
Table D-1 lists the maximum observed degradation of the IKZF1 protein and IKZF3 protein as measured in the Human CD8^+ T Cell Reprogramming assay. The results in Table D-1 were rounded to two digits. In the Human CD8^+ T Cell Reprogramming assay, a value of 100% indicated no detectable protein remaining or complete degradation of the protein; and a value of 0% indicated no detectable degradation of the protein by the test compound.

Read-outs that look alike come from different tables or passages of the source. Bounds are passed on as bounds.

Dmax and DC50 data for one compound are collected here from patent US20260335299A1, “SUBSTITUTED OXOISOINDOLINYL PIPERIDINE-2,6-DIONE COMPOUND AS ANTICANCER AGENT” (BRISTOL-MYERS SQUIBB COMPANY, priority 2023, published 2026).

T1 sequence (Q9H2S9 whole entry): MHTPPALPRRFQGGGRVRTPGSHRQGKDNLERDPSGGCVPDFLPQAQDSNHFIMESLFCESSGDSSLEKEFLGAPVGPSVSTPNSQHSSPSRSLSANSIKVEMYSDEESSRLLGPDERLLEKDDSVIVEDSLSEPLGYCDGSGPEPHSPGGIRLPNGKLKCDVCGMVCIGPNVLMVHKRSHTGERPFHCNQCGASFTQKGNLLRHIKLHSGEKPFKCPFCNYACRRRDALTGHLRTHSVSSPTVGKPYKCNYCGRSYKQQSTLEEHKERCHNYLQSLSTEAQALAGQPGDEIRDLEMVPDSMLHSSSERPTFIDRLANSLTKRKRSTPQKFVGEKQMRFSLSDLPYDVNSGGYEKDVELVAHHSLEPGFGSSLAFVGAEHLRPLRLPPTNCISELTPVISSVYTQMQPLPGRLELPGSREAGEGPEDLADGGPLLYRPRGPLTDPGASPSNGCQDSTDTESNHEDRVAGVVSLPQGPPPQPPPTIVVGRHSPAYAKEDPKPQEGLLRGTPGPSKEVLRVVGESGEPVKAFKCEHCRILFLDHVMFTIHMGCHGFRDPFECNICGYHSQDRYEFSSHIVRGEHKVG
T1 sequence (Q96SW2 whole entry): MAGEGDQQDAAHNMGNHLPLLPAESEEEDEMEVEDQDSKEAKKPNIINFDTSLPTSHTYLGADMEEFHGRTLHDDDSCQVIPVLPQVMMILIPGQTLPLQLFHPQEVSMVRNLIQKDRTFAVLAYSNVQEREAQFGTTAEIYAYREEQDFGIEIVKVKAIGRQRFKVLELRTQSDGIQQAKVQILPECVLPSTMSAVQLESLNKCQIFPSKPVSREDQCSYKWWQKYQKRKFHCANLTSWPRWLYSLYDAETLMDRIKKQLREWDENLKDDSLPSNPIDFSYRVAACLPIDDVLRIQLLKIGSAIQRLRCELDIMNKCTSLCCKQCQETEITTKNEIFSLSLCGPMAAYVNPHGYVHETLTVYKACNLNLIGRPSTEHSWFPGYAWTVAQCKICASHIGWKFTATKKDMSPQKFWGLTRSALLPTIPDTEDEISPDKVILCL
T1 sequence (Q16531 whole entry partner): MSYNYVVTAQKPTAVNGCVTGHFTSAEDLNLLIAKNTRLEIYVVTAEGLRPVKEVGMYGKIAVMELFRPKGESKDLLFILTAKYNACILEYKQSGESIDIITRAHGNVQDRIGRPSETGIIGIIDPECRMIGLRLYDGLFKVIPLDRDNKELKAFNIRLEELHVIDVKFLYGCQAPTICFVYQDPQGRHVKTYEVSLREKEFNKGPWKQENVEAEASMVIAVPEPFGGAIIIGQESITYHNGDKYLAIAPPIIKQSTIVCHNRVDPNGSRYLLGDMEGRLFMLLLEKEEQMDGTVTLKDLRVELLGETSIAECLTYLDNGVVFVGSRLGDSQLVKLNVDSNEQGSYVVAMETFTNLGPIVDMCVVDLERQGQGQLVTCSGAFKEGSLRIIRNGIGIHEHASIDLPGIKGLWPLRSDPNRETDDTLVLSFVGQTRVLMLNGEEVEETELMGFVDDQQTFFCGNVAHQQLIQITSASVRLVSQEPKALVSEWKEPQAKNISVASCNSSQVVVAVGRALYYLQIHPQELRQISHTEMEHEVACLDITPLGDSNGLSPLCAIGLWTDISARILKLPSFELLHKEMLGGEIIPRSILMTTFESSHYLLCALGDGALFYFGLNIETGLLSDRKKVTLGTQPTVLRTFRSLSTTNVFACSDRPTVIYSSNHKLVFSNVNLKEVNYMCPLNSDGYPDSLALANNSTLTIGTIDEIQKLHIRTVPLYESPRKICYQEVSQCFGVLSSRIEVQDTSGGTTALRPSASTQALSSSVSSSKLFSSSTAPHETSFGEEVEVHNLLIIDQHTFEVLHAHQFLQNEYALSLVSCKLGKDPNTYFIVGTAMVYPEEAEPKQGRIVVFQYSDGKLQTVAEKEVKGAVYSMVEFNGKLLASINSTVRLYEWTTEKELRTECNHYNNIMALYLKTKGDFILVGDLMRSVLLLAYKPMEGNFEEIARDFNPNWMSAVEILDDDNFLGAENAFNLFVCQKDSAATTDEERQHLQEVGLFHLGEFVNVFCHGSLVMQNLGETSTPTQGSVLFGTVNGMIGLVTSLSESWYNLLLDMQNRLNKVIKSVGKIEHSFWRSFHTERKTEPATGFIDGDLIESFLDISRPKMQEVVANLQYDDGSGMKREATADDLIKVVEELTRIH
IKZF1 Ikaros, sequence (Q13422 whole entry): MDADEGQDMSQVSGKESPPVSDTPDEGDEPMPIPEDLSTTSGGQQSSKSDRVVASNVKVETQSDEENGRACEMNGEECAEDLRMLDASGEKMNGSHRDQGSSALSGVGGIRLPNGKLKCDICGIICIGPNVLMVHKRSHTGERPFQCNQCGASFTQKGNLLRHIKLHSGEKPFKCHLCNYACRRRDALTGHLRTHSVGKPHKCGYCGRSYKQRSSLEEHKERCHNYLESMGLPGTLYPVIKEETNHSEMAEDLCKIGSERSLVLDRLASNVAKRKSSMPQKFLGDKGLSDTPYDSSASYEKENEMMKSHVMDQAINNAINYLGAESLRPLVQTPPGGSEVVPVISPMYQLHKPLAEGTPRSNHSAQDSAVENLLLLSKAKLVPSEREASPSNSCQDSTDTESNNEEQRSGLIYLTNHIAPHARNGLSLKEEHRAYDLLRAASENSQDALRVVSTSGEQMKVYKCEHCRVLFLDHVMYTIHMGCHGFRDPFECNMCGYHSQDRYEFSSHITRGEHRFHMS
IKZF1 Ikaros, sequence (Q96SW2 whole entry): as the sequence (Q96SW2 whole entry) above
IKZF1 Ikaros, sequence (Q16531 whole entry partner): as the sequence (Q16531 whole entry partner) above

Turning to `Nc1nc(-c2ccc3c(c2F)CN(C2CCC(=O)NC2=O)C3=O)ccc1CN1CC(C2CCC(F)(F)CC2)C1` (stereo not drawn) [Example 1, 3-(5-(6-Amino-5-((3-(4,4-difluorocyclohexyl)azetidin-1-yl)methyl)pyridin-2-yl)-4-fluoro-1-oxoisoindolin-2-yl) piperidine-2,6-dione], the Dmax was at least 71% at IKZF4 Eos (Regulatory T cell, human, text summary of Table C-1, read-out: decreased the level of IKZF4 (Eos)); 71 to 72% at IKZF4 Eos (Regulatory T cell, human Treg cells, stimulated, 12-13 days, read-out: IKZF4 Eos Maximum Observed Degradation); 71 to 72% on IKZF4 Eos (summary table, Human T Regulatory Cell Reprogramming Assay (Table C-1), read-out: IKZF4 Eos max % deg. observed (Table E)); 86% on IKZF1 Ikaros (read-out: IKZF1 Ikaros Maximum Observed Degradation). Besides, the DC50 on IKZF4 Eos (human Treg cells, stimulated, 12-13 days, concentration reducing protein level by 50% compared to DMSO alone) was 1.3 to 1.6 nM; at IKZF1 Ikaros (concentration reducing protein level by 50% compared to DMSO alone) it was 35 to 44 nM.
